This is an account of results in ChEMBL document CHEMBL1148436, “Structural determinants for high 5-HT(2A) receptor affinity of spiro[9,10-dihydroanthracene]-9,3(')-pyrrolidine (SpAMDA)” (Bioorg Med Chem Lett, 2004).

Each structure is given as a SMILES string.

In general, Ki refers to a dissociation constant, usually derived from enzyme kinetics or from competition with a known ligand.

Experiment [1] deals with Sodium-dependent noradrenaline transporter (Homo sapiens, UniProt P23975). Put plainly: Binding affinity towards Norepinephrine transporter using [3H]nisoxitine as radioligand.
In experiment [2] the target is Sodium-dependent serotonin transporter (Homo sapiens, UniProt P31645). As to the kind of experiment: Binding affinity towards Serotonin transporter using [3H]paroxetine as radioligand.
Experiment [3] deals with 5-hydroxytryptamine receptor 2A (Homo sapiens, UniProt P28223). Put plainly: Binding affinity towards 5-hydroxytryptamine 2A receptor using [3H]ketanserin.
Experiment [4] concerns the target T1, 5-hydroxytryptamine receptor 2C (Homo sapiens, UniProt P28335).
T1 sequence (P28335 whole entry): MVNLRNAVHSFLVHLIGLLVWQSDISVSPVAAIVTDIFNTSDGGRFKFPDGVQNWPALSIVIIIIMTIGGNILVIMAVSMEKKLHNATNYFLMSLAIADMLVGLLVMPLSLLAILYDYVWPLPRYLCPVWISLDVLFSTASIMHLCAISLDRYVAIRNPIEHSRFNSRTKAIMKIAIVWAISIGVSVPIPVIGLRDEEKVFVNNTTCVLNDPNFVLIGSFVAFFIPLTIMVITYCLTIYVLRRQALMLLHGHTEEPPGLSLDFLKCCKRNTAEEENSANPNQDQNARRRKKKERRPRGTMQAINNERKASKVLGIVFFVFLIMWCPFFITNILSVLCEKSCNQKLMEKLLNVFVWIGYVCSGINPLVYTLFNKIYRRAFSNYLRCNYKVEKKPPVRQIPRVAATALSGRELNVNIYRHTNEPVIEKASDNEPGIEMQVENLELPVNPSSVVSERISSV
As to the kind of experiment: Binding affinity towards 5-hydroxytryptamine 2C receptor using [3H]mesulergine as radioligand.

As to `c1ccc2c(c1)Cc1ccccc1C21CCNC1`, the values for the Ki in experiment [1] and in experiment [2] were 10000 nM and 3900 nM, respectively.
As to `c1ccc2c(c1)CCc1ccccc1C21CCNC1`, in experiment [3], the inhibitory constant (Ki) was determined as 110 nM.
Same read-out and setting: in the case of `c1ccc2c(c1)CCCC21CCNC1` (stereo not drawn) it was over 10000 nM; in that of `c1ccc2c(c1)Cc1ccccc1C21CCCNC1`, 99 nM.
Still for that read-out and setting: in the case of `c1ccc(C2(c3ccccc3)CCNC2)cc1` it was 4610 nM.
`CN1CCC(=C2c3ccccc3C=Cc3ccccc32)CC1` [CYPROHEPTADINE]: affinity in experiment [4] was put at a Ki of 11 nM.
On the same count and under the same terms, for `CN(C)CCCN1c2ccccc2CCc2ccccc21` [IMIPRAMINE] the value was 160 nM.
